Laboratory results from patent publication US5643890A, “Synthetic oligonucleotides which mimic telomeric sequences for use in treatment of cancer and other diseases” (priority 1995, dated 1997).
Where two headings read alike, the source gives them in different places.

How the values were obtained:
OMA-BL1 cells = experiment: Growth rate / doubling time of OMA-BL1 cells cultured with oligo; assay type: cell-based, human; details: for Doubling Time (Hours of Doubling): observed for 5 days
Experimental: A cell line, OMA-BL1, of cells derived from an American Burkitt's lymphoma patient, which had the typical 8:14 chromosome translocation characteristic of Burkitt's lymphoma was tested according to the method of the invention. The OMA-BL1 cells have a homologous staining region along chromosome 18 (18 HSR). The cell line was grown in vitro consisting of RPMI 1640 medium supplemented with 20% fetal calf serum (RF20). 2 mM L-glutamine and antibiotics (streptomycin 100 μ/ml and penicillin) 2× week.
Phosphorothioate oligonucleotides corresponding to the recognition sequence for telomerase enzyme were synthesized. The sequence of oligonucleotides tested was 5'-(TTAGGG)-3' SEQ ID NO: 3. They were dissolved in RPMI1640 medium before using.
The cell lines were grown under concentration of 5×10^5 cells/ml and RPMI1640 with and without different concentrations of oligo. Concentrations of oligo used in the study were 1.25 μM and 2.5 μM. The growth rate of the cells was measured by counting the cells with a light microscope and Neuber cell counter on days 1, 3, and 5 after initiation of the culture. […]

[1] = system: OMA-BL1, Burkitt's Lymphoma; experiment: In vivo efficacy, OMA-BL1 Burkitt's lymphoma in nude mice, continuous subcutaneous infusion
Experimental: Nude mice were injected with 5×10^6 OMA-BL1 cells subcutaneously in the leg flank. The mice were observed daily for the appearance of tumors and general well-being. […] The mean fill volume of these pumps is 0.226 ml. A solution of 4 mg/ml of 6-mers and 20 μl of FITC-TAG-6 was prepared then sterile filtered through a 0.22 μm in line filter (Millipore). […]

Telomerase enzyme = experiment: Telomerase activity in extract of Chang cells incubated with oligo (32P-dGTP primer elongation, gel autoradiograph); assay type: cell-based, human; details: 3 μM oligo, three hours
Experimental: Chang cells (human liver carcinoma) were grown in three T150 flasks until they reached confluency. 5'-d(TTAGGG)-3' SEQ ID NO: 3 phosphorothioate oligonucleotide was added at 3 μM concentration to each of the flasks and was allowed to incubate for three hours. Cells were harvested by scraping with a rubber policeman. Telomerase enzyme was prepared according to the method of Dignam, J. D.; Lebovitz, R. M.; and Raeder, R. G. (1983). Accurate transcription initiation by RNA Polymerase II in a Soluble Extract From Isolated Mammalian Nuclei. Nucl. Acids Res. 11, 1475-1489. 20 μL samples were taken from -80° C. and 20 μL of a reaction mixture containing 4.0mM dATP, 4.0mM dTTP, 4.0 mM dGTP, 2.0 μM (5'-d(TTAGGG)3 -3') SEQ ID NO: 4 primer, 10 mM β-mercaptanol, 100 mM TRIS-acetate pH 8.5, 2.0 mM MgCl2, 1 mM spermidine, and 2 μL of 3000 Ci/mmol P^32 labeled dGTP.
Samples were incubated for 30 minutes at 30° C. and stopped by the addition 10 μL […] EDTA pH 8.0 and 2.0 μL of tracking dye. Samples were loaded onto a 12.5 percent acrylamide gel and run at 25 mA constant power for 4-5 hours until the tracking dye had run off the gel. The gel was then soaked in 10 percent glycerol and water and dried overnight between two sheets of cellophane. […] The telomerase activity was inhibited for the 6-mer oligo.

[2] = system: OMA-BL1 cells, PBE1 cells, HPB-null cell line; experiment: Cellular uptake of FITC-labeled oligo; assay type: cell-based; details: 6-mer compared with 18-mer; cell lines which have differentiated
Text: Several studies were done on cellular uptake and thus efficiency of oligonucleotide sequences mimicking the telomere motif. FIGS. 4 and 5 depict the comparison of the 18-mer 5'-d(TTAGGG)3 -3' SEQ ID NO: 4 with the 6-mer TELIGO 5'-d(TTAGGG)-3' SEQ ID NO: 3 for cellular uptake of FITC-labeled oligo in OMA-BL1 cells (FIGS. 5 and 4(a)), PBE1 cells FIG. 4(b) and in the nondifferentiated HPB-null cell line FIG. 4(c). […] FIG. 6 depicts the effects of 5'-d(TTAGGG)-3' SEQ ID NO: 3 on growth of OMA-BL1 cells in vitro at 1.25 μM and 2.5 μM.

[3] = system: highly metastatic breast cancer cell line (Human); experiment: Tumor invasion assay (Matrigel invasion chambers) and proliferation, human breast cancer cell line; assay type: cell-based; details: for % control invasion / % inhibition: Human cell line, 48 hours; for proliferation (in words): human highly metastatic breast cancer cell line; for % inhibition: invasion
410.4 cells = experiment: Tumor invasion assay (Matrigel invasion chambers) and proliferation, mouse breast cancer cell line; assay type: cell-based; details: for % control invasion / % inhibition: Mouse cell line, 48 hours; for % inhibition: invasion; for proliferation (in words): mouse highly metastatic breast cancer cell line
Experimental: Migration of 410.4 cells through matrigel coated Nucleopore filters was measured using Matrigel invasion chambers (Collaborative Biomedical Products). These chambers contained inserts with […] pore size and were coated with a uniform film of matrigel. 4×10^4 410.4 cells in Weymouths Medium plus 0.1% bovine serum albumin were added to the invasion chambers. The wells below the invasion chambers contained 0.5 ml of Weymouths plus 10% fetal calf serum as a chemoattractant. […] The noninvasive cells were then removed from the upper surface of the membrane with a cotton swab and the cells on the lower surface were stained using a Leucostat staining kit. The membranes then were removed from the chamber using a scalpel and the cells were counted under high power (450×) in 5 random fields.

telomerase [4] = experiment: FAM labeled 6-mer recovered from urine of tumor-bearing nude mouse, size analysis of telomerase products; assay type: in vivo; details: nude mouse bearing OMA-BL1 tumor
Experimental: An FAM labeled 6-mer 5'-d(TTAGGG)-3' SEQ ID NO: 3 was injected into nude mice with Burkitt's lymphoma (OMA-BL1) cells growing in them. The FAM labeled TELIGO was recovered from the urine of a nude mouse bearing a tumor composed of OMA-BL1 cells. The urine was evaluated on an Applied Biosystem, Inc. Gene Scanner which can separate the products of the telomerase enzyme by size along the abscissa and reports the quantity of products by the fluorescence intensity along the ordinate in arbitrary units. An internal standard of rhodamine labeled nucleic acids is run in the same gel in order to establish the measurement of size of the telomerase enzyme products of the TELIGO. The FAM label verifies that the DNA is from the injected TELIGO 6-mer and the size additions of intervals of 6-base lengths is evidence of the telomerase enzyme activity which adds 6 bases per catalytic cycle.
All products were multiples of six which is significant because in that telomerase adds bases to telomeres in multiples of six. Thus it would seem the 6-mer interacts with telomerase to form unique products verifying interaction in vivo.

cell line = details: cited from earlier work
telomerase [5] = experiment: HPB-null cell lysate, incorporation of labeled nucleic acids onto TELIGO 18-mer; assay type: cell-based; details: HPB-null cells
telomerase [6] = experiment: Telomerase activity in OMA-BL1 cell lysate (densitometry of autoradiograph); assay type: biochemical, human; details: test not specified at b115
Experimental: An OMA-BL1 cell lysate was prepared to retain telomerase activity. The telomerase enzyme adds radioactive nucleic acids to the substrate which are separated on a polyacrylamide gel. The relative radioactivity in the gel was measured by densitomitry of the autoradiograph.

[7] = nude mice, 48 μg/day, 14 days, subcutaneous infusion

Substance | Doubling Time (Hours of Doubling) (OMA-BL1 cells; 1.25 μM oligo) [h] | Doubling Time (Hours of Doubling) (OMA-BL1 cells; 2.5 μM oligo) [h] | effect on cell proliferation (in words) (OMA-BL1 cells) | other results
5'-d(GTTGAGGGG)-3' (DNA, backbone not given here) | 49.4 ± 4.02 | 60.71 ± 4.25 |  | 
5'-d(TAGGG)-3' (DNA, backbone not given here) | 48.5 ± 3.0 | 41.6 ± 2.0 | no inhibitory effect | 
5'-d(TCCTAGGTCCATGTCGTACGC)-3' (DNA, backbone not given here) [reference compound] |  | 38 |  | 
5'-d(TGAGG)-3' (DNA, backbone not given here) | 30.3 ± 39 | 42.0 ± 6.8 |  | 
5'-d(TGTGAG)-3' [reference compound] | 42.4 ± 1.8 | 40.9 ± 2.3 |  | tumor regression [1, 7]: no such action was observed
5'-d(TTAGG)-3' (DNA, backbone not given here) | 31.2 ± 8.5 | 36.7 ± 3.1 | no inhibitory effect | 
5'-d(TTAGGG)-3' (phosphorothioate backbone) [6-mer oligonucleotide which mimics the telomere motif] | 59.4 ± 7.5 | > 100 | drastically decreasing cell proliferation | effect on cell proliferation (in words) (OMA-BL1 cells; listed as phosphorothioate 6-mer): significant decrease in cell proliferation; telomerase activity (elongation on autoradiograph) (Telomerase enzyme): inhibited; cellular uptake of FITC-labeled oligo [2]: considerably higher cellular uptake; % control invasion [3]: 30%; proliferation (in words) [3]: inhibition of proliferation; % inhibition [3]: 70%; % control invasion (410.4 cells): 15%; % inhibition (410.4 cells): 75%; proliferation (in words) (410.4 cells): inhibition of proliferation; toxicity during the treatment [1, 7]: No toxicity was observed; tumor regression [1, 7]: regression of tumors; localization of the oligonucleotide ([1]; tumor bearing nude mice, continuous subcutaneous infusion): localization of the oligonucleotide in tumors; substrate for telomerase in vivo (FAM-labeled products in urine, multiples of six) (telomerase [4]): substrate for telomerase in vivo
5'-d(TTAGGGTTAGGG):' (DNA, backbone not given here) [two telomere repeats] | > 100 | > 100 |  | days in culture before any observable response (cell line): ≤ 6 days
5'-d(TTAGGGTTAGGGTTAGGG)-3' (DNA, backbone not given here) | > 100 | > 100 |  | % control invasion [3]: 8%; proliferation (in words) [3]: inhibition of proliferation; % inhibition [3]: 92%; % control invasion (410.4 cells): 21%; % inhibition (410.4 cells): 79%; proliferation (in words) (410.4 cells): inhibition of proliferation; extension on the TELIGO 18-mer (retained radioactivity) (telomerase [5]): dependent upon the dose
5'-d(TTAGGGTTAGGGTTAGGGTTAGGG)-3' | > 100 | > 100 |  | 
5'AACGGTGAGGGGCAT-3' (chemistry not given here) [c-myc, antisense oligo to the c-myc gene, reference compound] |  |  | significantly decreased cellular proliferation | 
5'TATGCTGTGCCGGGGTCTTCGGGC-3' (chemistry not given here) [c-myb antisense oligonucleotide, reference compound] |  |  | significantly decreased cellular proliferation | 
TGTGAGGGG (chemistry not given here) [myc 9-mer, 9-mer derived from the antisense oligo c-myc, contains a motif substantially analogous to the telomere motif] |  |  | effects similar to the 6-met | telomerase activity (in words) (telomerase [6]): inhibited
